The record followed here is a melting point compilation (Tetko et al.).

One may read the melting point as the temperature of the solid-liquid transition.

`Cc1nn(C)c(C)c1NC(=O)C(C)Cl` (configuration not stated) yielded a melting point of 120 to 122 °C. Consider `CC(=O)N(c1ccc(F)cc1)c1nc(C=O)cs1`, for which the melting point was 216 to 218 °C. Then `O=Cc1cnc2ccnn2c1`, with 166 to 168 °C; and `COC(=O)c1ccc(OC)cc1N`, with 76 to 78 °C; and `Cn1cc(S(=O)(=O)N2CCCC2)cc1C(=O)O`, with 219 to 221 °C. For `NC(CC(=O)O)c1cc(Cl)cc(Cl)c1` (configuration not stated) the value was 205 to 207 °C. With `CN(CC(=O)O)S(N)(=O)=O`, the melting point lay within 94 to 96 °C. `Brc1ccc(-n2cnnn2)cc1`: the melting point lay in the range of 180 to 182 °C. Then `CC(=CC(=O)O)c1cccc(C(F)(F)F)c1`, with 135 to 137 °C. For `N#Cc1ccc(N2CCNC(=O)C2)cc1` the value was 224 to 226 °C. Then `CC1(C)Cc2cccc(OCC(=O)O)c2O1`, with 111 to 113 °C; and `CC(C)NCc1nnc(-c2ccc([N+](=O)[O-])cc2)o1`, with 175 to 182 °C.

`O=C(Nc1cccc(O)c1)c1ccco1` came in with a melting point of 164 to 166 °C. Regarding `CCN(CC)c1ccnc(NN)n1`, the melting point lay in the range of 84 to 86 °C. For `CN1C(=O)C(=O)c2ccc(F)cc21` the value was 137 to 139 °C. Then `CC(C)Cc1ccc(C(=O)c2cccs2)cc1`, with 112 to 114 °C. For `NS(=O)(=O)c1cc(Cl)c(F)c(C(=O)O)c1` the value was 228 to 230 °C; for `O=C(O)C(F)(F)c1ccc(Cl)c(Cl)c1`, 109 to 111 °C. With `CCC(C#N)NC(=O)OC(C)(C)C` (configuration not stated), the melting point lay within 78 to 80 °C. Then `CCC(Nc1c([N+](=O)[O-])c(C)nn1C)C(=O)O` (configuration not stated), with 129 to 131 °C; and `O=C(O)c1ccc(-c2cccs2)o1`, with 169 to 171 °C.

Regarding `COc1ccc(Br)c(S(N)(=O)=O)c1`, the melting point lay within 119 to 121 °C. Then `Oc1ccc2c(O)ccnc2c1`, with 207 to 209 °C; and `CC(=O)NCc1ccc(S(=O)(=O)Cl)s1`, with 80 to 82 °C. Then `O=C(O)CC(NC(=O)c1ccccc1)c1ccccc1` (configuration not stated), with 197 to 199 °C; and `O=C(O)C1SCCc2sccc21` (configuration not stated), with 148 to 150 °C; and `CC(C)OCc1ccccc1CNC(=O)CCl`, with 40 to 42 °C.

`O=C(c1ccc2c(c1)CCO2)c1cc(Cl)ccc1Cl` displayed a melting point of 81 to 83 °C.

Regarding `CC(=O)N1Cc2ccccc2CC1C(=O)O` (configuration not stated), the melting point fell in the range of 173 to 175 °C. For `CSc1cc(C(=O)O)ccc1F` the value was 189 to 191 °C; for `CCN(CC)C(=O)Cn1cccc(C(=O)O)c1=O`, 114 to 116 °C. Then `NC1(C(=O)O)Cc2ccccc2C1`, with 254 to 256 °C; and `O=C(O)c1cccc(S(=O)(=O)Nc2ccc3c(c2)OCO3)c1`, with 249 to 251 °C.

`CC(=O)C(CN1C(=O)c2ccccc2C1=O)C(C)=O` registered a melting point of 169 to 171 °C.

The molecule `COC(=O)c1cc(Cl)c(O)c(Cl)c1` came in with a melting point of 117 to 121 °C. For `Nc1cc(C(=O)Nc2ccccc2)ccc1Cl` the value was 199 to 201 °C; for `N#CCOc1ccc(CCl)cc1`, 63 to 65 °C.

Regarding `CC(C)(C)c1noc(N)n1`, the melting point was in the range of 192 to 194 °C. For `CN(C)CCCNC(N)=S` the value was 66 to 68 °C.

`CC(=O)N1CCN(c2cc(C#N)ccn2)CC1`: the melting point lay in the range of 107 to 109 °C.

On to `NC(=O)c1cc(-c2ccccc2)on1`, for which the melting point was in the range of 202 to 204 °C.

Molecule `COC(=O)CCCc1csc(N)n1` showed a melting point of 69 to 71 °C.

`N#Cc1ccc(C(=O)O)nc1`: the melting point lay within 210 to 215 °C. The molecule `CN1CCCN(C(=O)c2ccccc2N)CC1` yielded a melting point of 80 to 82 °C. As to `NC(=O)Cc1cccc(O)c1`, the melting point fell in the range of 114 to 116 °C.

`O=C(O)c1cnn(-c2ccccc2)c1`: the melting point lay within 175 to 182 °C. Then `NC(=O)CN1CCC(O)CC1`, with 114 to 116 °C. `O=Cc1ccc(F)c2cccnc12` came in with a melting point of 113 to 115 °C.

With `O=C(O)c1cc(Br)ncc1[N+](=O)[O-]`, the melting point lay within 169 to 171 °C. For `O=S(=O)(Cl)c1ccc(OCC(F)(F)F)cc1` the value was 55 to 57 °C. The molecule `Cc1ccc(-c2nonc2N)cc1` returned a melting point of 139 to 141 °C. For `O=C(O)Cc1ccccc1OC(F)F` the value was 76 to 78 °C. For `N#CC(c1ccc(Br)cc1)N1CCNCC1` (configuration not stated) the value was 83 to 85 °C; for `Cc1cn2c(C=O)c(C)nc2s1`, 153 to 155 °C. `O=C(O)CCC(=O)N1CCSc2ccccc21`: the melting point is 134 to 136 °C.

In turn, `C#CCNC(=O)Nc1ccccc1` showed a melting point of 133 to 135 °C. Then `N#CCC(=O)Nc1cccc(Cl)c1`, with 139 to 141 °C; and `CC(C)c1ccccc1Oc1ccccc1C(=O)O`, with 133 to 135 °C; and `O=c1[nH]c2ccc(C(F)(F)F)cc2c(=O)o1`, with 269 to 271 °C. `CC(=O)NCc1ccc(C(=O)C(C)Cl)o1` (configuration not stated) returned a melting point of 64 to 66 °C. Then `Nc1ccc(-c2nc(C3CC3)no2)cc1Cl`, with 97 to 99 °C; and `Cc1cc(C)c(C)c(Oc2c(C(=O)O)c(C)nn2C)c1`, with 215 to 217 °C.

As to `O=C(O)c1cc(C2CC2)nn1-c1ccccc1`, the melting point was 138 to 140 °C. Then `CC(Oc1ccc(Cl)cc1)C(=O)O` (configuration not stated), with 111 to 113 °C; and `N#CCC(=O)Nc1ccc(S(N)(=O)=O)cc1`, with 215 to 217 °C. Then `Cc1cc(-c2nc3cc(F)ccc3s2)ccc1N`, with 191 to 193 °C. With `COc1cc(N)ccc1S(=O)(=O)Nc1ccc(Cl)cc1Cl`, the melting point lay in the range of 199 to 201 °C.

For the molecule `Fc1ccc(CNc2nnc(S)s2)cc1`, the melting point was 168 to 170 °C.

For the molecule `O=C(O)CCNc1nccs1`, the melting point fell in the range of 171 to 173 °C.

In turn, `O=C(CCl)/N=c1\sccn1Cc1ccccc1Cl` yielded a melting point of 82 to 84 °C. For `O=c1[nH][nH]c2ncc(Br)cc12` the value was 219 to 221 °C; for `Cc1c[nH]c(=O)n1-c1ccc(C(=O)O)cc1`, 285 to 287 °C. Then `Cn1cc(SSc2cnn(C)c2)cn1`, with 111 to 113 °C; and `O=C(Nc1ncccn1)C1CCNCC1`, with 146 to 148 °C.

Take `Nc1cccc(C(=O)N2CCCC(CO)C2)c1` (configuration not stated): the melting point was in the range of 115 to 117 °C. For `N#Cc1ccccc1Sc1ccccc1C(=O)O` the value was 213 to 216 °C. For `NNC(=O)Cc1cc(=O)[nH]c(S)n1` the value was 242 to 244 °C; for `CCN(Cc1ccc2c(c1)OCCO2)C(=O)CCl`, 213 to 215 °C; for `Clc1nc(-c2cccc(Oc3ccccc3)c2)no1`, 50 to 52 °C. For `CC(=O)N1CCC(CCl)CC1` the value was 48 to 50 °C. As for `O=C(O)c1[nH]c2ccccc2c1Cl`, the melting point was 179 to 181 °C. For `Nc1cccc(Cn2cnc3ccccc32)c1` the value was 168 to 170 °C. Then `CCOC(=O)c1sc2nc(CN(C)C)nc(Cl)c2c1C`, with 114 to 116 °C; and `NS(=O)(=O)c1cc(Br)c(Cl)c(C(=O)O)c1`, with 219 to 221 °C; and `Nc1cc(N2C(=O)CCC2=O)ccc1F`, with 215 to 217 °C. For `CC(=O)c1c[nH]c2cc(Cl)ccc12` the value was 229 to 231 °C; for `Cn1nnnc1S(C)(=O)=O`, 64 to 66 °C. The molecule `O=C(O)C1CCCCC1C(=O)N1CCc2ccccc21` (configuration not stated) gave a melting point of 123 to 125 °C.

The molecule `O=C(O)c1ccc(Oc2ccccc2[N+](=O)[O-])cc1` came in with a melting point of 196 to 198 °C. Then `Cn1c(=O)n(C)c2cc(C(=O)O)c(Br)cc21`, with 289 to 291 °C; and `OC1CCc2c(F)cccc21` (configuration not stated), with 59 to 61 °C. For `O=C(O)COc1ccc(C(=O)c2ccccc2)cc1` the value was 152 to 156 °C. For `CC(C)=CC(=O)NCc1ccc(C(=O)O)cc1` the value was 187 to 189 °C; for `Cc1cccc(-c2nonc2N)c1`, 77 to 79 °C; for `Nc1c(-c2cccs2)nc2ccccn12`, 188 to 190 °C. In turn, `Cc1cc(C)n(CCO)n1` displayed a melting point of 74 to 76 °C. For `O=C(O)c1cccc(N2C(=O)CSC2=S)c1` the value was 260 to 262 °C; for `NC(=O)c1cnn2c3c(cnc12)CCOC3=O`, 289 to 291 °C; for `N#Cc1ccc(F)c(CN2CCCC2=O)c1`, 92 to 94 °C. Then `CC(C)N(CCC(=O)O)C(=O)OC(C)(C)C`, with 65 to 67 °C. For `COC(=O)Nc1cccc(C(=O)O)c1` the value was 229 to 231 °C; for `O=S(=O)(Cl)Cc1ccc2ccccc2c1`, 97 to 99 °C. Molecule `COCc1nc(OC)c2c(C)c(C(=O)O)sc2n1` gave a melting point of 188 to 190 °C. For `CC(C)(C(=O)O)c1ccc(F)cc1` the value was 89 to 91 °C; for `O=C(O)c1ccccc1CSc1nnc[nH]1`, 177 to 179 °C; for `Cc1nc(C(=O)O)c2ccccn12`, 187 to 189 °C. For `OC1C=C(c2ccc(Cl)cc2)CC1` (configuration not stated) the value was 89 to 91 °C. On to `O=C1C=CC(=O)N1c1cccc2ccccc12`, for which the melting point lay in the range of 103 to 105 °C. As to `Cc1ccccc1-n1ncc(C(=O)O)c1N`, the melting point lay in the range of 159 to 161 °C.

Take `CCOc1ccc(N)cc1CO`: the melting point lay in the range of 77 to 79 °C.

`O=C(O)CCn1c(=O)[nH]c(=O)c2ccccc21` yielded a melting point of 231 to 233 °C.

`O=C(O)c1c(-n2cccc2)sc2c1CCSC2`: the melting point lay in the range of 169 to 171 °C. For `COc1ccc2cc(C(C)C#N)ccc2c1` (configuration not stated) the value was 70 to 72 °C; for `Sc1nc2c(s1)CCCC2`, 119 to 121 °C; for `Cc1nc2ccccc2nc1Br`, 102 to 104 °C.

`O=C1CC(C(=O)O)CCN1` (configuration not stated) had a melting point of 164 to 166 °C. Turning to `COc1ccc(NC(=O)OC(C)(C)C)c(N)c1`, the melting point fell in the range of 116 to 118 °C. For `COc1ccc(C2(C)NC(=O)N(NC(=O)CCl)C2=O)cc1` (configuration not stated) the value was 124 to 126 °C; for `Brc1ccc(-c2nccs2)cc1`, 45 to 47 °C; for `O=C(CSc1nnnn1-c1ccccc1)c1ccc[nH]1`, 182 to 184 °C. The molecule `COCCOc1ncccc1C(=O)O` showed a melting point of 58 to 60 °C. For `O=C(O)c1ccc(S)cc1Cl` the value was 184 to 186 °C.
